Data published in the supplement of paper PMC10307832.

Compound: Cc1ccccc1C(C(=O)NC1CCCCC1)N(C(=O)Cn1ccnc1C)c1cccc(F)c1 [IDH-C35] + COc1cccc2cc(-c3nc([C@H]4CC[C@H](C(=O)O)CC4)n4ncnc(N)c34)[nH]c12 [OSI-027] (partner 0.5 µM)
Assay: relative viability (nuclei count vs DMSO), 5 days (fraction); higher = more cells survive
Details: first compound 0.08 µM
Outline: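 Dosing by pin tool came one day after lung cancer cell lines were seeded in 1536-well plates, using either one drug or a fixed anchor-drug dose plus five library-drug doses (not always all listed) in √10 steps. After 5 days, nuclei were counted on 4× images. Relative viability is treated-well nuclei count divided by vehicle-well nuclei count, and values are medians of duplicate plates.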

| Cell Line | relative viability |
| --- | --- |
| NCI-H1993 | 0.522 |
| SW 1573 | 0.779 |
| NCI-H838 | 0.406 |
| LCLC-103H | 0.458 |
| NCI-H520 | 0.257 |
| NCI-H2126 | 0.767 |
| EMC-BAC-2 | 0.364 |
| NCI-H2085 | 0.772 |
| HCC-366 | 0.968 |
| NCI-H1666 | 0.828 |
| NCI-H596 | 0.787 |
| LK-2 | 0.213 |
| NCI-H2087 | 0.59 |
| NCI-H2342 | 0.564 |
| SK-MES-1 | 0.634 |
| H3255 | 0.554 |
| COR-L23 | 0.843 |
| COR-L 105 | 0.588 |
| LOU-NH91 | 0.742 |
| ChaGo-K-1 | 0.604 |
| NCI-H2170 | 0.669 |
| NCI-H2405 | 0.651 |
| HOP-62 | 0.895 |
| HCC-44 | 0.538 |
| SW 900 | 0.496 |
| NCI-H1648 | 0.289 |
| NCI-H441 | 0.617 |
| NCI-H1395 | 0.66 |
| NCI-H1793 | 0.225 |

Same assay, conditions: first compound 0.253 µM

| Cell Line | relative viability |
| --- | --- |
| NCI-H522 | 0.658 |
| NCI-H1623 | 0.421 |
| NCI-H727 | 0.474 |
| NCI-H1650 | 0.593 |
| NCI-H1993 | 0.532 |
| SW 1573 | 0.798 |
| NCI-H838 | 0.402 |
| LCLC-103H | 0.487 |
| NCI-H520 | 0.243 |
| NCI-H2126 | 0.731 |
| EMC-BAC-2 | 0.366 |
| NCI-H2085 | 0.929 |
| HCC-366 | 0.955 |
| NCI-H1666 | 0.81 |
| NCI-H596 | 0.806 |
| LK-2 | 0.226 |
| NCI-H2087 | 0.518 |

| Cell Line | relative viability |
| --- | --- |
| NCI-H2342 | 0.629 |
| SK-MES-1 | 0.598 |
| H3255 | 0.534 |
| COR-L23 | 0.696 |
| COR-L 105 | 0.771 |
| LOU-NH91 | 0.76 |
| ChaGo-K-1 | 0.523 |
| NCI-H2170 | 0.661 |
| NCI-H2405 | 0.651 |
| HOP-62 | 0.801 |
| HCC-44 | 0.641 |
| SW 900 | 0.584 |
| NCI-H1648 | 0.234 |
| NCI-H441 | 0.647 |
| NCI-H1395 | 0.701 |
| NCI-H1793 | 0.256 |

Same assay, conditions: first compound 0.8 µM

| Cell Line | relative viability |
| --- | --- |
| NCI-H522 | 0.74 |
| NCI-H1623 | 0.394 |
| NCI-H727 | 0.464 |
| NCI-H1650 | 0.637 |
| NCI-H1993 | 0.57 |
| SW 1573 | 0.648 |
| NCI-H838 | 0.369 |
| LCLC-103H | 0.473 |
| NCI-H520 | 0.268 |
| NCI-H2126 | 0.68 |
| EMC-BAC-2 | 0.383 |
| NCI-H2085 | 0.722 |
| HCC-366 | 0.806 |
| NCI-H1666 | 0.865 |
| NCI-H596 | 0.709 |
| LK-2 | 0.188 |
| NCI-H2087 | 0.537 |

| Cell Line | relative viability |
| --- | --- |
| NCI-H2342 | 0.564 |
| SK-MES-1 | 0.604 |
| H3255 | 0.581 |
| COR-L23 | 0.861 |
| COR-L 105 | 0.735 |
| LOU-NH91 | 0.743 |
| ChaGo-K-1 | 0.529 |
| NCI-H2170 | 0.739 |
| NCI-H2405 | 0.622 |
| HOP-62 | 0.76 |
| HCC-44 | 0.595 |
| SW 900 | 0.601 |
| NCI-H1648 | 0.274 |
| NCI-H441 | 0.538 |
| NCI-H1395 | 0.709 |
| NCI-H1793 | 0.279 |

Same assay, conditions: first compound 2.53 µM

| Cell Line | relative viability |
| --- | --- |
| NCI-H522 | 0.669 |
| NCI-H1623 | 0.435 |
| NCI-H727 | 0.588 |
| NCI-H1650 | 0.659 |
| NCI-H1993 | 0.505 |
| SW 1573 | 0.763 |
| NCI-H838 | 0.383 |
| LCLC-103H | 0.428 |
| NCI-H520 | 0.276 |
| NCI-H2126 | 0.651 |
| EMC-BAC-2 | 0.39 |
| NCI-H2085 | 0.741 |
| NCI-H1666 | 0.845 |
| LK-2 | 0.24 |
| NCI-H2342 | 0.616 |
| SK-MES-1 | 0.597 |
| H3255 | 0.661 |
| COR-L23 | 0.829 |
| COR-L 105 | 0.727 |
| LOU-NH91 | 0.716 |
| ChaGo-K-1 | 0.637 |
| NCI-H2170 | 0.71 |
| NCI-H2405 | 0.567 |
| HOP-62 | 0.79 |
| HCC-44 | 0.61 |
| SW 900 | 0.353 |
| NCI-H1648 | 0.275 |
| NCI-H441 | 0.675 |
| NCI-H1395 | 0.618 |

Same assay, conditions: first compound 8 µM

| Cell Line | relative viability |
| --- | --- |
| NCI-H522 | 0.674 |
| NCI-H1623 | 0.423 |
| NCI-H727 | 0.592 |
| NCI-H1650 | 0.571 |
| NCI-H1993 | 0.555 |
| SW 1573 | 0.753 |
| NCI-H838 | 0.398 |
| LCLC-103H | 0.457 |
| NCI-H520 | 0.265 |
| NCI-H2126 | 0.677 |
| EMC-BAC-2 | 0.385 |
| NCI-H2085 | 0.638 |
| HCC-366 | 0.785 |
| NCI-H1666 | 0.841 |
| NCI-H596 | 0.629 |
| LK-2 | 0.236 |
| NCI-H2087 | 0.532 |

| Cell Line | relative viability |
| --- | --- |
| NCI-H2342 | 0.587 |
| SK-MES-1 | 0.508 |
| H3255 | 0.647 |
| COR-L23 | 0.731 |
| COR-L 105 | 0.628 |
| LOU-NH91 | 0.732 |
| ChaGo-K-1 | 0.572 |
| NCI-H2170 | 0.676 |
| NCI-H2405 | 0.621 |
| HOP-62 | 0.78 |
| HCC-44 | 0.625 |
| SW 900 | 0.625 |
| NCI-H1648 | 0.257 |
| NCI-H441 | 0.579 |
| NCI-H1395 | 0.579 |
| NCI-H1793 | 0.262 |
